Data as given in patent US20090325959A1 (priority 2008, published 2009).
Where two headings read alike, the source gives them in different places.

Tests used:
ROCK1 = biological target: T1, ROCK1 (Homo sapiens, UniProt Q13464); assay: Rho kinase inhibition assay (IMAP fluorescence polarization), ROCK1; assay type: biochemical;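 also: kinase reaction run 60 min at room temperature, then phosphorylated substrate captured on IMAP beads for 30 min, with fluorescence polarization read in mP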
T1 construct: purchased Upstate/Chemicon 14-601
T1 sequence (Q13464 17-535 limits assumed): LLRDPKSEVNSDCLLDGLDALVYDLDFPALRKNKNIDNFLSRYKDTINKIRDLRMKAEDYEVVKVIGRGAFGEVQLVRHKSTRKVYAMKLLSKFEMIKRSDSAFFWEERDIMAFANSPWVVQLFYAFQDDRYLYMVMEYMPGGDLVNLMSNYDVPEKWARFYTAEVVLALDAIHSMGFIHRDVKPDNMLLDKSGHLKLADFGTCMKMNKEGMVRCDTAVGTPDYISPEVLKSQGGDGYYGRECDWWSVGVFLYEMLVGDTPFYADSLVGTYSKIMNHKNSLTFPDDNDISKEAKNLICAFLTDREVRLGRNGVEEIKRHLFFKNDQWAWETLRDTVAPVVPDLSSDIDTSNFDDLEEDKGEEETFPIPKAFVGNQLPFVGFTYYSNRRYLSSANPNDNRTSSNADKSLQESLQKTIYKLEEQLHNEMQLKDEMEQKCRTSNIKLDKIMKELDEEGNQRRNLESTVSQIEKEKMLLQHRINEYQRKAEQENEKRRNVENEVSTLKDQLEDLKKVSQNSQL
Method: (§1) Following the pre-incubation, 10 μM ATP was added to initiate the reaction. After 60 minutes at room temperature, Molecular Devices IMAP™ binding solution was added to bind phosphorylated substrate. After 30 minutes of incubation in the presence of the IMAP™ beads, the fluorescence polarization was read and the ratio was reported as mP. IC50 values for compounds and EC50 values for ATP were calculated using the Prism software from Graphpad.

ROCK2 = biological target: T2, ROCK2 (Homo sapiens, UniProt O75116); assay: Rho kinase inhibition assay (IMAP fluorescence polarization), ROCK2; assay type: biochemical;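 also: kinase reaction started with 10 µM ATP and run 60 min at room temperature, then phosphorylated substrate captured on IMAP beads for 30 min and fluorescence polarization read in mP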
T2 construct: purchased Upstate/Chemicon 14-451
T2 sequence (O75116 11-552 limits assumed): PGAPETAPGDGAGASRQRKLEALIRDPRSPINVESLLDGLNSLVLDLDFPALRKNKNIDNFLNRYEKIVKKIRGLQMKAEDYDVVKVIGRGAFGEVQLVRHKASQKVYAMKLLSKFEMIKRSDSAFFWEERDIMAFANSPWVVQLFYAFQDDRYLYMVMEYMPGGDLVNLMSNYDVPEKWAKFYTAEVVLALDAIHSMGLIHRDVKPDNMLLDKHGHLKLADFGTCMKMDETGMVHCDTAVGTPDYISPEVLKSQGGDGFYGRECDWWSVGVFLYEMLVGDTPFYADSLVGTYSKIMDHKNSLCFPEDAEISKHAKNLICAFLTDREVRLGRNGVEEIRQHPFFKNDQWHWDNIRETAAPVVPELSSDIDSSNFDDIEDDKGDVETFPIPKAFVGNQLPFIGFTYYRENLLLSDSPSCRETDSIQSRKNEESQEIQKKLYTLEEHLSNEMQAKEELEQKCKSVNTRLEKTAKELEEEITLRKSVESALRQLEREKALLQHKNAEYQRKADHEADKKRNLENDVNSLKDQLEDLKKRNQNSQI
Method: as §1

[1] = tested on: A-10 rat thoracic aorta cells; assay: PDGF-stimulated smooth muscle cell proliferation assay (BrdU incorporation); assay type: cell-based; details: A-10 cells, 10 ng/mL PDGF, BrdU incorporation, percent of total challenge-stimulated proliferation; for Percent of PDGF Induced Proliferation at 1 μM Avg: 1 μM test compound; for Percent of PDGF Induced Proliferation at 10 μM Avg: 10 μM test compound;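 as to all read-outs here: cells kept in serum-free medium, BrdU allowed to incorporate for 24 h, then incorporated label detected fluorometrically with an anti-BrdU antibody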
Akt3 human enzyme = biological target: T3, Akt3 human enzyme (Homo sapiens, UniProt Q9Y243); assay: Akt3 inhibition assay (IMAP FP); assay type: biochemical;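 also: kinase reaction run 60 min at room temperature after 30 µM ATP start, phosphorylated substrate captured on IMAP beads and read as fluorescence polarization (mP)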
T3 construct: purchased Upstate Chemicon 14-502
T3 sequence (Q9Y243 whole entry): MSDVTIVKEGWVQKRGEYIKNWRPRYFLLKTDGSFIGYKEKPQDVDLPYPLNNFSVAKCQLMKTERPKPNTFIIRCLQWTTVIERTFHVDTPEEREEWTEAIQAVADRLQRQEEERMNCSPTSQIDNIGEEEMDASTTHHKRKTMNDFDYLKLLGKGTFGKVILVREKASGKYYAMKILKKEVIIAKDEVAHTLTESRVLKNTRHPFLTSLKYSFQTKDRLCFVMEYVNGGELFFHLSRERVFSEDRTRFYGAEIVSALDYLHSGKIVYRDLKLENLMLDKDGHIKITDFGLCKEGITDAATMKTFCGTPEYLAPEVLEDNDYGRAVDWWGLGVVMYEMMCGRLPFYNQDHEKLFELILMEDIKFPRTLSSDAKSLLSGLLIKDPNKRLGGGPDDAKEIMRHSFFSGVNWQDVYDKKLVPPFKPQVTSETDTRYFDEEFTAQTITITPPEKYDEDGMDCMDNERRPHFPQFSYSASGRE

p70S6K human enzyme = biological target: T4, p70S6K human enzyme (Homo sapiens, UniProt P23443, T412E); assay: p70S6K inhibition assay (IMAP FP); assay type: biochemical;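 also: kinase reaction run at room temperature, phosphorylated substrate captured on IMAP beads and read as fluorescence polarization in mP, IC50 then converted to Ki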
T4 construct: purchased Upstate Chemicon 14-486
T4 sequence (P23443 1-421 T412E limits assumed): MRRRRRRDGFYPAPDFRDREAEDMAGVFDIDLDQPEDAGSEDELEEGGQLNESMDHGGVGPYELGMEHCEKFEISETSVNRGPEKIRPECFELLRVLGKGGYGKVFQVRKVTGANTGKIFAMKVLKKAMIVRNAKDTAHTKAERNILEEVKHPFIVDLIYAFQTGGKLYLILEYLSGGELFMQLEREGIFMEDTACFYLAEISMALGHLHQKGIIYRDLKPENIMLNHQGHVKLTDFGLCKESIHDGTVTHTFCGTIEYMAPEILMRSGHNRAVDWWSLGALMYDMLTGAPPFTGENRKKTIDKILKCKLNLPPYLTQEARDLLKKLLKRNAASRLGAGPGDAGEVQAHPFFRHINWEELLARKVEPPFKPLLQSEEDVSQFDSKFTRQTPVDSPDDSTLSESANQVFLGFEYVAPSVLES

[2] = Compound plasma concentrations in unsensitized mice at 15 min post administration; assay type: in vivo; details: mouse, 15 μmol/kg; mean compound plasma concentration in mice at 15 minutes post oral administration; read-out: Mouse Oral PK
[3] = 10 μM ATP, read-out: ROCK2 Ki, Avg
[4] = 30 μM ATP, Ki=IC50/(1+([ATP Challenge]/EC50 ATP)), read-out: Akt3 Ki, Avg
[5] = 30 μM ATP, Ki=IC50/(1+([ATP Challenge]/EC50 ATP)), read-out: p70S6K Ki, Avg
[6] = average Ki, read-out: p70S6K Ki

Cc1ccc(S(=O)(=O)Nc2cc(CN3CCC[C@H](Nc4ccc5[nH]ncc5c4)C3)ccc2C)cc1 [Compound 1.239, (S)-N-(5-((3-(1H-indazol-5-ylamino)piperidin-1-yl)methyl)-2-methylphenyl)-4-methylbenzenesulfonamide]
Ki (ROCK1; Avg, 10 μM ATP): 283 nM
Ki (ROCK1; average Ki): 283 nM
Ki (ROCK2; [3]): 6.3 nM
Ki (ROCK2; average Ki, read-out: ROCK2 Ki): 6.3 nM
Percent of PDGF Induced Proliferation at 1 μM Avg [1]: 41.7%
Percent of PDGF Induced Proliferation at 10 μM Avg [1]: 37.8%
Ki (Akt3 human enzyme; [4]): 17700 nM
Ki (Akt3 human enzyme; average Ki, read-out: Akt3 Ki): 17700 nM
Ki (p70S6K human enzyme; [5]): 10000 nM
Ki (p70S6K human enzyme; [6]): 10000 nM
concentration at 15 min [2]: 259 nM

CCS(=O)(=O)Nc1cc(CN2CCC[C@H](Nc3ccc4[nH]ncc4c3)C2)ccc1C [Compound 1.253, (S)-N-(5-((3-(1H-indazol-5-ylamino)piperidin-1-yl)methyl)-2-methylphenyl)ethanesulfonamide]
Ki (ROCK1; Avg, 10 μM ATP): 59.9 nM
Ki (ROCK1; average Ki): 59.9 nM
Ki (ROCK2; [3]): 1.7 nM
Ki (ROCK2; average Ki, read-out: ROCK2 Ki): 1.7 nM
Percent of PDGF Induced Proliferation at 1 μM Avg [1]: 44.8%
Percent of PDGF Induced Proliferation at 10 μM Avg [1]: 47.9%
Ki (Akt3 human enzyme; [4]): 2600 nM
Ki (Akt3 human enzyme; average Ki, read-out: Akt3 Ki): 2600 nM
Ki (p70S6K human enzyme; [5]): 2510 nM
Ki (p70S6K human enzyme; [6]): 2510 nM
concentration at 15 min [2]: 240 nM

C#Cc1ccc(CN2CC[C@@H](Nc3cccc4cnccc34)C2)cc1 [Compound 2.031, (R)-N-(1-(4-ethynylbenzyl)pyrrolidin-3-yl)isoquinolin-5-amine]
Ki (ROCK1; Avg, 10 μM ATP): 14.6 nM
Ki (ROCK1; average Ki): 14.6 nM
Ki (ROCK2; [3]): 5.3 nM
Ki (ROCK2; average Ki, read-out: ROCK2 Ki): 5.3 nM
Percent of PDGF Induced Proliferation at 1 μM Avg [1]: 90.3%
Percent of PDGF Induced Proliferation at 10 μM Avg [1]: 52.6%
Ki (Akt3 human enzyme; [4]): 1360 nM
Ki (Akt3 human enzyme; average Ki, read-out: Akt3 Ki): 1360 nM
Ki (p70S6K human enzyme; [5]): 326 nM
Ki (p70S6K human enzyme; [6]): 326 nM
concentration at 15 min [2]: 1430 nM

CCS(=O)(=O)Nc1cccc(CN2CC[C@@H](Nc3cccc4cnccc34)C2)c1 [Compound 2.041, (R)-N-(3-((3-(isoquinolin-5-ylamino)pyrrolidin-1-yl)methyl)phenyl)ethanesulfonamide]
Ki (ROCK1; Avg, 10 μM ATP): 30.8 nM
Ki (ROCK1; average Ki): 30.8 nM
Ki (ROCK2; [3]): 9.6 nM
Ki (ROCK2; average Ki, read-out: ROCK2 Ki): 9.6 nM
Percent of PDGF Induced Proliferation at 1 μM Avg [1]: 81.8%
Percent of PDGF Induced Proliferation at 10 μM Avg [1]: 61.5%
Ki (Akt3 human enzyme; [4]): 3440 nM
Ki (Akt3 human enzyme; average Ki, read-out: Akt3 Ki): 3440 nM
Ki (p70S6K human enzyme; [5]): 2100 nM
Ki (p70S6K human enzyme; [6]): 2100 nM
concentration at 15 min [2]: 987 nM

c1ccc(CN2CC[C@@H](Nc3cccc4cnccc34)C2)cc1 [Compound 2.046, (R)-N-(1-benzylpyrrolidin-3-yl)isoquinolin-5-amine]
Ki (ROCK1; Avg, 10 μM ATP): 16.7 nM
Ki (ROCK1; average Ki): 16.7 nM
Ki (ROCK2; [3]): 5.6 nM
Ki (ROCK2; average Ki, read-out: ROCK2 Ki): 5.6 nM
Percent of PDGF Induced Proliferation at 1 μM Avg [1]: 57.4%
Percent of PDGF Induced Proliferation at 10 μM Avg [1]: 32.1%
Ki (Akt3 human enzyme; [4]): 1980 nM
Ki (Akt3 human enzyme; average Ki, read-out: Akt3 Ki): 1980 nM
Ki (p70S6K human enzyme; [5]): 759 nM
Ki (p70S6K human enzyme; [6]): 759 nM
concentration at 15 min [2]: 488 nM

COc1ccc(CN2CC[C@@H](Nc3cccc4cnccc34)C2)cc1 [Compound 2.047, (R)-N-(1-(4-methoxybenzyl)pyrrolidin-3-yl)isoquinolin-5-amine]
Ki (ROCK1; Avg, 10 μM ATP): 26.4 nM
Ki (ROCK1; average Ki): 26.4 nM
Ki (ROCK2; [3]): 7 nM
Ki (ROCK2; average Ki, read-out: ROCK2 Ki): 7 nM
Percent of PDGF Induced Proliferation at 1 μM Avg [1]: 65.3%
Percent of PDGF Induced Proliferation at 10 μM Avg [1]: 53.8%
Ki (Akt3 human enzyme; [4]): 1940 nM
Ki (Akt3 human enzyme; average Ki, read-out: Akt3 Ki): 1940 nM
Ki (p70S6K human enzyme; [5]): 437 nM
Ki (p70S6K human enzyme; [6]): 437 nM
concentration at 15 min [2]: 3 nM

CCS(=O)(=O)Nc1cc(CN2CC[C@@H](Nc3cccc4cnccc34)C2)ccc1C [Compound 2.054, (R)-N-(5-((3-(isoquinolin-5-ylamino)pyrrolidin-1-yl)methyl)-2-methylphenyl)ethanesulfonamide]
Ki (ROCK1; Avg, 10 μM ATP): 17.1 nM
Ki (ROCK1; average Ki): 17.1 nM
Ki (ROCK2; [3]): 3.7 nM
Ki (ROCK2; average Ki, read-out: ROCK2 Ki): 3.7 nM
Percent of PDGF Induced Proliferation at 1 μM Avg [1]: 68.2%
Percent of PDGF Induced Proliferation at 10 μM Avg [1]: 84.6%
Ki (Akt3 human enzyme; [4]): 415 nM
Ki (Akt3 human enzyme; average Ki, read-out: Akt3 Ki): 415 nM
Ki (p70S6K human enzyme; [5]): 439 nM
Ki (p70S6K human enzyme; [6]): 439 nM
concentration at 15 min [2]: 765 nM
